According to article PMC7217877, “N-AS-triggered SPMs are direct regulators of microglia in a model of Alzheimer’s disease” (Nature Communications, 2020):
“And” between values parts separate entries of the source, which are not always exact repeats. Equal values may be shown once. Read-outs that look alike come from different tables or passages of the source.

Tests used:
[1] = biological target: T1, SphK1 WT (Homo sapiens, UniProt Q9NYA1); assay: filter binding assay of [3H] acetyl-CoA to SphK1 (Supplementary Fig 1f,g); settings: for Km: read-out: KM of acetyl-CoA binding to SphK1
T1 construct: His (N); made in house
Excerpt: Single point mutations in SphK1 (R56A, R57A, R24A, R185A, D178A, and F192A) and COX2 (S565A, N181A, T564A, and S567A) were generated using the In-Fusion Cloning Kits (Clontech) and ORF cDNA expression plasmids of human SphK1 and COX2 gene (Sino Biological Inc, HG15679-NH and HG12036-NH), according to the manufacturer’s instructions. The forward and reverse primers described in Supplementary Table 4. The SphK1 WT, SphK1 mutants, COX2 WT, and COX2 mutant plasmids were transformed in the One shot TOP 10 competent cell (Invitrogen). The bacteria were grown in Luria-Bertani (LB, Invitrogen) plates supplemented with 50 μg ml^−1 kanamycin (Sigma-Aldrich) at 37 °C. The bacterial cell pellets were resuspended in lysis buffer containing 20 mM sodium phosphate (GE Healthcare), 500 mM NaCl (GE Healthcare), 20 mM imidazole (pH 7.4) (GE Healthcare), 0.2 mg ml^−1 lysozyme (Sigma-Aldrich), 20 μg ml^−1 DNase I (Roche), 1 mM MgCl2 (Sigma-Aldrich), and 1 mM PMSF (Sigma-Aldrich) before being lysed by sonication and clarified by centrifugation at 15,493×g for 10 min. Proteins were purified from the soluble fraction using His-Spin Trap columns (GE Healthcare) and the binding and acetylation assays were performed.
Briefly, SphK1 WT and mutant enzymes (1 mU) were resuspended in 100 μl reaction buffer (20 mM HEPES; pH 7.4, 50 mM NaCl, 10 mM MgCl2, 1 mM EGTA, 0.02% Triton-X100, and 100 μM sphingosine, all from Sigma-Aldrich). […] Briefly, COX2 WT and mutant enzymes (1 mU) were resuspended in 100 μl reaction buffer (20 mM HEPES; pH 7.4, 50 mM NaCl, 10 mM MgCl2, 1 mM EGTA, and 0.02% Triton-X100, all from Sigma-Aldrich). Reactions were initiated by adding [^14C] N-AS (1–200 μM (0.1–20 μCi), ARC UK Ltd, ARC-1024) and incubated at 37 °C for 1 h. The reactions were terminated by adding 100 μl of ice-cold reaction buffer containing 5 mM cold N-AS and immediately filtered through P30 filtermat (Perkin-Elmer), followed by five washes.
The binding velocity was plotted and the Kcat and KM values were calculated from the Michaelis-Menten analysis using the Sigma-plot program (ver 10.0, Systat software Inc.).

[2] = tested on: microglia; assay: sphingosine level in primary cells (UPLC); type: cell-based, C57BL/6 mice; settings: Ab 10mM, replicates
Description: To confirm the generation and roles of N-AS in neurons, cells from E18 C57BL/6 mice were prepared as previously described. Cortices were dissected and then dissociated followed by incubation in papain (Worthington) at 37 °C for 15 min. Neurons were plated on poly-L-lysine-coated coverslips with neuronal culture medium, serum-free Neurobasal medium (Gibco) containing 2% B27 supplements (Gibco), 1 mM Glutamax supplement (Gibco), and 100 U ml^−1 streptomycin/ 100 U ml^−1 penicillin (Gibco) at 37 °C in a humidified atmosphere of 5% CO2. Aβ 1–42 (10 μM, 24 h, Invitrogen, 03112) was exposed to neurons and the cells were analyzed for the generation and roles of N-AS. Primary astrocyte cultures were prepared from C57BL/6 mice as described previously. […] The human microglia treated with Aβ 1–42 and/or zileuton was incubated with N-AS (2.5 μM, 2 h, Sigma-Aldrich, 01912), and were analyzed for the generation and roles of N-AS.
To quantify the sphingosine levels, the dried lipid extract was resuspended in 0.2% Igepal CA-630. […] The fluorescent sphingosine was monitored using a model 474 scanning fluorescence detector (Waters). Quantification of the sphingosine was calculated from sphingosine calibration curves using the Waters Millennium software.

[3] = ATP 1000 µM, 100 µM sphingosine
[4] = SphK1 (WT), Supplementary Fig 1g

T1 sequence (Q9NYA1 whole entry): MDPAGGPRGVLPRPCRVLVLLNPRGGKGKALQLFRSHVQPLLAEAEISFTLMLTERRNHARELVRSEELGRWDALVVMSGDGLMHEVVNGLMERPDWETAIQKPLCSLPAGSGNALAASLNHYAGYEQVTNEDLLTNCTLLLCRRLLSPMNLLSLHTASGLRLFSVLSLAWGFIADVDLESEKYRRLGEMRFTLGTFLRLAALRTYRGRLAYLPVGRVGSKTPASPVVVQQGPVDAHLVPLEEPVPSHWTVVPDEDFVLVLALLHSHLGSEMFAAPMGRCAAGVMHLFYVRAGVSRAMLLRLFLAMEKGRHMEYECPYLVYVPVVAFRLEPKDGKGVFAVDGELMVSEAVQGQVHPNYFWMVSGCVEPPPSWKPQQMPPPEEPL

Molecule	Kcat of acetyl-CoA binding to SphK1 ([1]; ATP 0 µM, 100 µM sphingosine)	Kcat of acetyl-CoA binding to SphK1 ([1]; ATP 10 µM, 100 µM sphingosine)	Kcat of acetyl-CoA binding to SphK1 ([1]; ATP 100 µM, 100 µM sphingosine)	Kcat of acetyl-CoA binding to SphK1 [1, 3]	Kcat of acetyl-CoA binding to SphK1 [1, 4]	Km ([1]; ATP 0 µM, 100 µM sphingosine)	Km ([1]; ATP 10 µM, 100 µM sphingosine)	Km ([1]; ATP 10 µM, 100 µM sphingosine, listed as acetyl-CoA)	Km ([1]; ATP 100 µM, 100 µM sphingosine)	Km ([1]; ATP 100 µM, 100 µM sphingosine, listed as acetyl-CoA)	Km [1, 3]	Km ([1]; ATP 1000 µM, 100 µM sphingosine, listed as acetyl-CoA)	Km [1, 4]	sphingosine (Fig 3f) [2]
CC(=O)SCCNC(=O)CCNC(=O)[C@H](O)C(C)(C)COP(=O)(O)OP(=O)(O)OC[C@H]1O[C@@H](n2cnc3c(N)ncnc32)[C@H](O)[C@@H]1OP(=O)(O)O [Acetyl-CoA, acetyl-CoA]	0.000282 s⁻¹	0.000268 s⁻¹	0.000183 s⁻¹	0.000138 s⁻¹	0.000288 s⁻¹	11 µM	24.5 µM	24.5 µM	35.2 µM	35.2 µM	39 µM	39 µM	10.5 µM	
Ab: Aβ 1–42 (Invitrogen, 03112) used to induce an AD environment in cells														0.15 and 0.136 and 0.128 and 0.16 and 0.14 and 0.144
